# Measured values reported in patent US5556744A, “Methods and compositions for diagnosing and treating certain HIV infected patients” (The Trustees of the University of Pennsylvania, priority 1994, dated 1996).
# What was measured:
# Design in all cases: species or system human
# [1] = tested on: sera samples (antibodies); assay: ELISA peptide-binding of maternal sera, MN strain peptides (Example 7); conditions: for Correlation of peptide binding with non-transmission (in words): Example 7; for % Bound, Non-Transmitter / No. of Sera Samples Bound, Non-Transmitter / % Bound, Transmitter / No. of Sera Samples Bound, Transmitter: n = 5
# Protocol: This example provides additional sera screens using peptides corresponding to sequences of the MN strain. The sera samples (5 transmitters and 5 non-transmitters) were obtained from the NIH and differ from those screened in the previous studies. Peptide binding was analyzed by ELISA as described in Example 3.
# [2] = tested on: maternal HIV+ sera (antibodies); assay: RIA / ELISA binding of maternal HIV+ sera to gp120 and gp41 peptides (Example 3)
# How it was run: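 Peptides were coated at 10 μg/ml in carbonate buffer pH 9.6 and blocked with 1% BSA. Sera at 1:50 and 1:500 were incubated overnight at 4°C and detected with ¹²⁵I anti-human IgG (RIA) or HRP/TMB at OD450 (ELISA). Specific binding was taken as peptide minus no-peptide wells, scored as a ratio to normal human serum.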
# [3] = tested on: maternal sera (antibodies); assay: ELISA peptide-binding of maternal sera (Example 6)
# How it was run: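 Third-trimester maternal sera, from HIV-1 transmitting and non-transmitting mothers, were tested by ELISA against ~16-residue peptides spanning HIV-1 external and transmembrane glycoproteins. Each serum was run with at least 40 peptides, and values are the percentage of sera binding each peptide.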
substance,measurement,setting,value
DTSGRLVHGFLAIIW [MN-8],Correlation of peptide binding with non-transmission (in words),[1],selectively correlate with non-transmission
same,"% Bound, Non-Transmitter",[1],80%
same,"No. of Sera Samples Bound, Non-Transmitter",[1],4
same,"% Bound, Transmitter",[1],20%
same,"No. of Sera Samples Bound, Transmitter",[1],1
"MN-19: gp41 peptide, amino acids 531-540, HIV strain MN, SEQ ID NO: 169 (MGAASVTLTV)","% Bound, Non-Transmitter",[1],20%
same,"No. of Sera Samples Bound, Non-Transmitter",[1],1
same,"% Bound, Transmitter",[1],20%
same,"No. of Sera Samples Bound, Transmitter",[1],1
"MN-13: gp41 peptide, amino acids 619-637, HIV strain MN, SEQ ID NO: 166","% Bound, Non-Transmitter",[1],60%
same,"No. of Sera Samples Bound, Non-Transmitter",[1],3
same,"% Bound, Transmitter",[1],0%
same,"No. of Sera Samples Bound, Transmitter",[1],0
"MN-12: gp41 peptide, amino acids 830-842, HIV strain MN, SEQ ID NO: 197","% Bound, Non-Transmitter",[1],0%
same,"No. of Sera Samples Bound, Non-Transmitter",[1],0
same,"% Bound, Transmitter",[1],0%
same,"No. of Sera Samples Bound, Transmitter",[1],0
"MN-16: gp41 peptide, amino acids 638-650, HIV strain MN, SEQ ID NO: 167","% Bound, Non-Transmitter",[1],0%
same,"No. of Sera Samples Bound, Non-Transmitter",[1],0
same,"% Bound, Transmitter",[1],0%
same,"No. of Sera Samples Bound, Transmitter",[1],0
YIKIFIMIVGGLVG [MN-17],Correlation of peptide binding with non-transmission (in words),[1],selectively correlate with non-transmission
same,"% Bound, Non-Transmitter",[1],40%
same,"No. of Sera Samples Bound, Non-Transmitter",[1],2
same,"% Bound, Transmitter",[1],0%
same,"No. of Sera Samples Bound, Transmitter",[1],0
"MN-10: gp41 peptide, amino acids 716-730, HIV strain MN, SEQ ID NO: 158","% Bound, Non-Transmitter",[1],20%
same,"No. of Sera Samples Bound, Non-Transmitter",[1],1
same,"% Bound, Transmitter",[1],20%
same,"No. of Sera Samples Bound, Transmitter",[1],1
HIPTRIRQGLERALL [MN-11],Correlation of peptide binding with non-transmission (in words),[1],selectively correlate with non-transmission
same,"% Bound, Non-Transmitter",[1],60%
same,"No. of Sera Samples Bound, Non-Transmitter",[1],3
same,"% Bound, Transmitter",[1],0%
same,"No. of Sera Samples Bound, Transmitter",[1],0
HMLQLTVWGIKQLQAR [MN-15],Correlation of peptide binding with non-transmission (in words),[1],selectively correlate with non-transmission
same,"% Bound, Non-Transmitter",[1],60%
same,"No. of Sera Samples Bound, Non-Transmitter",[1],3
same,"% Bound, Transmitter",[1],0%
same,"No. of Sera Samples Bound, Transmitter",[1],0
IGALFLGFGAAGST [Peptide 117],Binding of maternal HIV+ serum to peptide (sera/NHS ratio),"[2]; Serum No. 1, Non-Transmission Group","- (specific OD450 or cpm of sera sample binding to peptide divided by the specific OD450 or cpm of NHS sample binding to peptide, which value is less than 2)"
same,Binding of maternal HIV+ serum to peptide (sera/NHS ratio),"[2]; Serum No. 2, Non-Transmission Group","- (specific OD450 or cpm of sera sample binding to peptide divided by the specific OD450 or cpm of NHS sample binding to peptide, which value is less than 2)"
same,Binding of maternal HIV+ serum to peptide (sera/NHS ratio),"[2]; Serum No. 3, Non-Transmission Group","- (specific OD450 or cpm of sera sample binding to peptide divided by the specific OD450 or cpm of NHS sample binding to peptide, which value is less than 2)"
same,Binding of maternal HIV+ serum to peptide (sera/NHS ratio),"[2]; Serum No. 4, Transmission Group","- (specific OD450 or cpm of sera sample binding to peptide divided by the specific OD450 or cpm of NHS sample binding to peptide, which value is less than 2)"
same,Binding of maternal HIV+ serum to peptide (sera/NHS ratio),"[2]; Serum No. 5, Transmission Group","- (specific OD450 or cpm of sera sample binding to peptide divided by the specific OD450 or cpm of NHS sample binding to peptide, which value is less than 2)"
same,Binding of maternal HIV+ serum to peptide (sera/NHS ratio),"[2]; Serum No. 6, Non-Transmission Group","- (specific OD450 or cpm of sera sample binding to peptide divided by the specific OD450 or cpm of NHS sample binding to peptide, which value is less than 2)"
same,Binding of maternal HIV+ serum to peptide (sera/NHS ratio),"[2]; Serum No. 7, Non-Transmission Group","- (specific OD450 or cpm of sera sample binding to peptide divided by the specific OD450 or cpm of NHS sample binding to peptide, which value is less than 2)"
same,Binding of maternal HIV+ serum to peptide (sera/NHS ratio),"[2]; Serum No. 8, Non-Transmission Group","- (specific OD450 or cpm of sera sample binding to peptide divided by the specific OD450 or cpm of NHS sample binding to peptide, which value is less than 2)"
same,Binding of maternal HIV+ serum to peptide (sera/NHS ratio),"[2]; Serum No. 9, Non-Transmission Group","- (specific OD450 or cpm of sera sample binding to peptide divided by the specific OD450 or cpm of NHS sample binding to peptide, which value is less than 2)"
same,Binding of maternal HIV+ serum to peptide (sera/NHS ratio),"[2]; Serum No. 10, Transmission Group","- (specific OD450 or cpm of sera sample binding to peptide divided by the specific OD450 or cpm of NHS sample binding to peptide, which value is less than 2)"
same,Binding of maternal HIV+ serum to peptide (sera/NHS ratio),"[2]; Serum No. 11, Non-Transmission Group","- (specific OD450 or cpm of sera sample binding to peptide divided by the specific OD450 or cpm of NHS sample binding to peptide, which value is less than 2)"
same,Binding of maternal HIV+ serum to peptide (sera/NHS ratio),"[2]; Serum No. 12, Non-Transmission Group","- (specific OD450 or cpm of sera sample binding to peptide divided by the specific OD450 or cpm of NHS sample binding to peptide, which value is less than 2)"
same,Binding of maternal HIV+ serum to peptide (sera/NHS ratio),"[2]; Serum No. 13, Transmission Group","- (specific OD450 or cpm of sera sample binding to peptide divided by the specific OD450 or cpm of NHS sample binding to peptide, which value is less than 2)"
same,Binding of maternal HIV+ serum to peptide (sera/NHS ratio),"[2]; Serum No. 14, Transmission Group","- (specific OD450 or cpm of sera sample binding to peptide divided by the specific OD450 or cpm of NHS sample binding to peptide, which value is less than 2)"
same,Binding of maternal HIV+ serum to peptide (sera/NHS ratio),"[2]; Serum No. 15, Transmission Group","- (specific OD450 or cpm of sera sample binding to peptide divided by the specific OD450 or cpm of NHS sample binding to peptide, which value is less than 2)"
same,Binding of maternal HIV+ serum to peptide (sera/NHS ratio),"[2]; Serum No. 16, Non-Transmission Group","- (specific OD450 or cpm of sera sample binding to peptide divided by the specific OD450 or cpm of NHS sample binding to peptide, which value is less than 2)"
same,Binding of maternal HIV+ serum to peptide (sera/NHS ratio),"[2]; Serum No. 17, Non-Transmission Group","- (specific OD450 or cpm of sera sample binding to peptide divided by the specific OD450 or cpm of NHS sample binding to peptide, which value is less than 2)"
same,Binding of maternal HIV+ serum to peptide (sera/NHS ratio),"[2]; Serum No. 18, Non-Transmission Group","- (specific OD450 or cpm of sera sample binding to peptide divided by the specific OD450 or cpm of NHS sample binding to peptide, which value is less than 2)"
same,Binding of maternal HIV+ serum to peptide (sera/NHS ratio),"[2]; Serum No. 19, Transmission Group","- (specific OD450 or cpm of sera sample binding to peptide divided by the specific OD450 or cpm of NHS sample binding to peptide, which value is less than 2)"
same,Binding of maternal HIV+ serum to peptide (sera/NHS ratio),"[2]; Serum No. 20, Non-Transmission Group","- (specific OD450 or cpm of sera sample binding to peptide divided by the specific OD450 or cpm of NHS sample binding to peptide, which value is less than 2)"
same,Number of Non-Transmitters which bound to peptide,"[3]; Non-Transmitters, N = 12",2
same,Percent of Non-Transmitters which bound to peptide,"[3]; Non-Transmitters, N = 12",16.7%
same,Number of Transmitters which bound to peptide,"[3]; Transmitters, N = 4",0
same,Percent of Transmitters which bound to peptide,"[3]; Transmitters, N = 4",0%
